“Also recorded” adds a separate entry of the source.
Biological target: UptA (Bacillus subtilis, UniProt O31823)
Test: Native MS competition of C55-P and phospholipids for UptA binding
Conditions: 4 µM UptA and 10 µM DOPG or DOPE, increasing C55-P up to 20 µM, on ice 15 min
Experimental: To investigate whether or not C55-P can outcompete phospholipids in binding to UptA, we incubated solutions containing UptA-DOPG with increasing concentrations of C55-P. Spectra were recorded after aliquots of the solution were equilibrated on ice for 15 min. […] We therefore hypothesised that phospholipids should be unable to outcompete C55-P bound to UptA. To test this hypothesis, we incubated UptA with C55-P and then equilibrated aliquots with an increasing concentration of DOPG. […]
The chloroform layer containing the total lipids was recovered into a clean glass vial, and the organic solvent was evaporated in a SpeedVac for 16 h. Lipid film was resuspended 200 mM ammonium acetate, 0.05% LDAO (pH 8.0) to ~0.5 mg/mL for the binding experiments.
Sample preparation for native MS
Before measurements, the protein was buffer-exchanged into 0.05% LDAO, 200 mM ammonium acetate (“MS buffer”) at the desired pH using a centrifugal buffer exchange device (Micro Bio -Spin 6, Bio-Rad). Stock solutions of lipids were prepared from chloroform/methanol solution by evaporating aliquots of known volume in a SpeedVac. After drying, the lipid films were weighed and resuspended to a final concentration of 0.5 mM in 200 mM ammonium acetate (pH8) and 0.05% LDAO by vertexing. Stock solutions of 0.5 mM amphomycin, aspartocin D, daptomycin and bacitracin, were made in the same buffer. All experiments were repeated three times from newly prepared stock solutions.
About 3 μL protein aliquot was transferred into a gold-coated borosilicate capillary (Harvard Apparatus) and was mounted on the nano ESI source of a Q-Exactive hybrid quadrupole-Orbitrap mass spectrometer (Thermo Fisher Scientific, Bremen, Germany). The instrument settings were 1.2 kV capillary voltage, S-lens RF 200%, argon UHV pressure 3.3 × 10−10 mbar, the capillary temperature was set to 200 °C, and resolution of the instrument was set to 17,500 at a transie nt time of 64 ms. […] The resulting fragments were detected in the Orbitrap (R = 280,000 @ m/z 200), averaging ~500 transients to maximise the signal-to-noise ratio. […]

Chain of UptA (O31823 whole entry): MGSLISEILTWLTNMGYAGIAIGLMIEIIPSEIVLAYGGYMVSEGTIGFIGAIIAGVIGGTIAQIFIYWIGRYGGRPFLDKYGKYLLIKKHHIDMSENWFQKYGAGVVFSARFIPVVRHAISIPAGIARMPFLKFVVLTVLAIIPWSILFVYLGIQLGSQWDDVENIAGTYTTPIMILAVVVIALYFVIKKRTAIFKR

With `CC(C)=CCC/C(C)=C/CC/C(C)=C/CC/C(C)=C\CC/C(C)=C\CC/C(C)=C\CC/C(C)=C\CC/C(C)=C\CC/C(C)=C\CC/C(C)=C\CC/C(C)=C\COP(=O)(O)O` [C55-P, undecaprenyl phosphate] the “displacement of phospholipid from UptA by C55-P (in words)” value was “C55-P has displaced most of DOPG from UptA; also recorded: C55-P effectively outcompete DOPE for UptA binding”.

From publication PMC11474028, “Lipopeptide antibiotics disrupt interactions of undecaprenyl phosphate with UptA” (Proceedings of the National Academy of Sciences of the …, 2024)
